Measured values from ChEMBL document CHEMBL5230157, “The natural anthraquinone dye purpurin exerts antibacterial activity by perturbing the FtsZ assembly” (Bioorg Med Chem, 2021).
Converted amounts (≈) assume the structure as drawn. The source made the active and inactive calls. The calls are words filed in the database; no cut-off is given here.

Legend:
Escherichia coli [1] = assay: Antibacterial activity against Escherichia coli XL1 assessed as bacterial growth inhibition at 300 uM by spectrophotometric method; type: functional; details: read-out: GI
Bacillus subtilis [2] = assay: Antibacterial activity against Bacillus subtilis 168 assessed as bacterial growth inhibition at 5 uM by spectrophotometric method; type: functional; details: read-out: GI
Bacillus subtilis [3] = assay: Antibacterial activity against Bacillus subtilis 168 assessed as bacterial growth inhibition at 10 uM by spectrophotometric method; type: functional; details: read-out: GI
Bacillus subtilis [4] = assay: Antibacterial activity against Bacillus subtilis 168 assessed as bacterial growth inhibition at 20 uM by spectrophotometric method; type: functional; details: read-out: GI
Bacillus subtilis [5] = assay: Antibacterial activity against Bacillus subtilis 168 assessed as bacterial growth inhibition at 30 uM by spectrophotometric method; type: functional; details: read-out: GI
Bacillus subtilis [6] = assay: Antibacterial activity against Bacillus subtilis 168 assessed as bacterial growth inhibition by spectrophotometric method; type: functional, organism-based
Bacillus subtilis [7] = assay: Antibacterial activity against Bacillus subtilis 168 assessed as minimum inhibitory concentration by spectrophotometric method; type: functional
Escherichia coli [8] = assay: Antibacterial activity against Escherichia coli XL1 assessed as bacterial growth inhibition at 10 uM by spectrophotometric method; type: functional; details: read-out: GI
Escherichia coli [9] = assay: Antibacterial activity against Escherichia coli XL1 assessed as bacterial growth inhibition at 20 uM by spectrophotometric method; type: functional; details: read-out: GI
Escherichia coli [10] = assay: Antibacterial activity against Escherichia coli XL1 assessed as bacterial growth inhibition at 30 uM by spectrophotometric method; type: functional; details: read-out: GI
Escherichia coli [11] = assay: Antibacterial activity against Escherichia coli XL1 assessed as bacterial growth inhibition at 80 uM by spectrophotometric method; type: functional; details: read-out: GI
Escherichia coli [12] = assay: Antibacterial activity against Escherichia coli XL1 assessed as bacterial growth inhibition at 150 uM by spectrophotometric method; type: functional; details: read-out: GI
Escherichia coli [13] = assay: Antibacterial activity against Escherichia coli XL1 assessed as bacterial growth inhibition at 200 uM by spectrophotometric method; type: functional; details: read-out: GI
Bacillus subtilis [14] = assay: Antibacterial activity against Bacillus subtilis 168 assessed as increase in average cell length at 7 uM incubated for 4 hrs in 9% of bacterial cells by fluorescent microscopy; type: functional
Bacillus subtilis [15] = assay: Antibacterial activity against Bacillus subtilis 168 assessed as increase in average cell length at 7 uM incubated for 4 hrs in 45% of bacterial cells by fluorescent microscopy; type: functional
Bacillus subtilis [16] = assay: Antibacterial activity against Bacillus subtilis 168 assessed as increase in average cell length at 7 uM incubated for 4 hrs in 69% of bacterial cells by fluorescent microscopy; type: functional
Bacillus subtilis [17] = assay: Antibacterial activity against Bacillus subtilis 168 assessed as increase in average cell length at 7 uM incubated for 4 hrs in 82% of bacterial cells by fluorescent microscopy; type: functional
Bacillus subtilis [18] = assay: Antibacterial activity against Bacillus subtilis 168 assessed as increase in average cell length at 7 uM incubated for 4 hrs in 23% of bacterial cells by fluorescent microscopy; type: functional
Escherichia coli [19] = assay: Antibacterial activity against Escherichia coli XL1 assessed as fold increase in average cell length at 80 uM incubated for 4 hrs in by fluorescent microscopy; type: functional
Bacillus subtilis [20] = assay: Antibacterial activity against Bacillus subtilis 168 assessed as fold increase in average cell length at 7 uM incubated for 4 hrs by fluorescent microscopy; type: functional
[21] = target: T1, Cell division protein FtsZ (Bacillus subtilis) (UniProt A5Z1V5); assay: Inhibition of Bacillus subtilis PL642 GFP-tagged FtsZ assessed as decrease FtsZ ring at mid bacterial cells at 7 uM for 4 hrs by immunostaining based fluorescent microscopy
T1 sequence (whole entry): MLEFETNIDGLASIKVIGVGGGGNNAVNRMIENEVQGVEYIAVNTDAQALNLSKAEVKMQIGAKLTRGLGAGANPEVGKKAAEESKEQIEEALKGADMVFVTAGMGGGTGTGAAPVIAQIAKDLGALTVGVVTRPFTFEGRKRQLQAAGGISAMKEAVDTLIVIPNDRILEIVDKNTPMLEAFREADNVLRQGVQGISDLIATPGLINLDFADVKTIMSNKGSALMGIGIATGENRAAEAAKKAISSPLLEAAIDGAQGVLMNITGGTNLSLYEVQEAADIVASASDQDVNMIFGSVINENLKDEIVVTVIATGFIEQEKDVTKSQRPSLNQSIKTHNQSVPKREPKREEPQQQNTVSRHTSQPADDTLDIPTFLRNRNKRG

[22] = target: T1, Cell division protein FtsZ (Bacillus subtilis); assay: Inhibition of Bacillus subtilis 168 FtsZ assessed as decrease FtsZ ring at mid bacterial cells at 7 uM for 4 hrs by immunostaining based fluorescent microscopy
[23] = target: T1, Cell division protein FtsZ (Bacillus subtilis); assay: Inhibition of Bacillus subtilis PL642 GFP-tagged FtsZ assessed as effect on nucleoid segregation at 7 uM for 4 hrs by immunostaining based fluorescent microscopy
[24] = target: T1, Cell division protein FtsZ (Bacillus subtilis); assay: Inhibition of Bacillus subtilis 168 FtsZ assessed as effect on nucleoid segregation at 7 uM for 4 hrs by immunostaining based fluorescent microscopy
[25] = target: T2, Cell division protein FtsZ (Escherichia coli K-12) (UniProt P0A9A6); assay: Inhibition of KCl-induced Escherichia coli BL21 FtsZ polymerization at 20 uM incubate for 10 min followed by KCl stimulation by spectrofluorimeter based light-scattering assay
T2 sequence (whole entry): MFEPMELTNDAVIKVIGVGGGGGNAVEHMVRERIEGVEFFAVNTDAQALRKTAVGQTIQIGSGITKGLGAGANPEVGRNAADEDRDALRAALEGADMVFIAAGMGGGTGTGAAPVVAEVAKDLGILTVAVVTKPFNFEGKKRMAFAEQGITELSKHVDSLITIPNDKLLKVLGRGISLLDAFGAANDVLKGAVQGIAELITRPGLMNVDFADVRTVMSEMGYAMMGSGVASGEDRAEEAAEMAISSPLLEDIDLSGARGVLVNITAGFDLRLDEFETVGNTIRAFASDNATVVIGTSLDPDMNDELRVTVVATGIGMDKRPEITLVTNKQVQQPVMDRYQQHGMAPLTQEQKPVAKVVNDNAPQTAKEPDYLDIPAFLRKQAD

MIC (Bacillus subtilis [7]): 30 µM (≈ 7.69 µg/mL)
Activity [21]: Active
Activity [22]: Active
Activity [23]: inactive
Activity [24]: inactive
inhibition [25]: 20%
SMILES: O=C1c2ccccc2C(=O)c2c(O)c(O)cc(O)c21 [PURPURIN]
inhibition of growth at 300 µM (Escherichia coli [1]): 94.7%
inhibition of growth at 5 µM (Bacillus subtilis [2]): 47%
inhibition of growth at 10 µM (Bacillus subtilis [3]): 65%
inhibition of growth at 20 µM (Bacillus subtilis [4]): 86%
inhibition of growth at 30 µM (Bacillus subtilis [5]): 100%
IC50 (Bacillus subtilis [6]): 5.5 µM
inhibition of growth at 10 µM (Escherichia coli [8]): 12.5%
inhibition of growth at 20 µM (Escherichia coli [9]): 18.5%
inhibition of growth at 30 µM (Escherichia coli [10]): 25.6%
inhibition of growth at 80 µM (Escherichia coli [11]): 38%
inhibition of growth at 150 µM (Escherichia coli [12]): 47.8%
inhibition of growth at 200 µM (Escherichia coli [13]): 67.8%
Activity (Bacillus subtilis [14]): 7 um
Activity (Bacillus subtilis [15]): 10.1 um
Activity (Bacillus subtilis [16]): 15.1 um
Activity (Bacillus subtilis [17]): 20.1 um
Activity (Bacillus subtilis [18]): 50.1 um
fold change (FC) (Escherichia coli [19]): 4
fold change (FC) (Bacillus subtilis [20]): 10
